From PMC9022229, “Induction of Paraptosis by Cyclometalated Iridium Complex-Peptide Hybrids and CGP37157 via a Mitochondrial Ca^2+ Overload Triggered by Membrane Fusion between Mitochondria and the Endoplasmic Reticulum” (Biochemistry, 2022)
Where two headings read alike, the source gives them in different places. Residues, ends and D or L forms follow the SMILES beside them. *: point of attachment. X1 = O=C(COc1ccc(-c2ccccn2)cc1)NCCCCCCCCN*

Experiments:
Type in all cases: cell-based
Jurkat cells [1] = experiment: Mitochondrial Ca2+ by flow cytometry with Rhod-2
Protocol: Other characteristic phenomena of paraptosis such as a mitochondrial Ca^2+ overload and loss of mitochondrial membrane potential (ΔΨm) induced by CGP37157 were also examined. Intracellular Ca^2+ concentrations were measured by flow cytometry using red-emitting Ca^2+ probes, Rhod-2 (a mitochondrial Ca^2+ probe) and Rhod-4 (a cytosolic Ca^2+ probe). Jurkat cells were stained with Rhod-2/AM or Rhod-4/AM (at 5 μM) and then treated with CGP37157 (100 μM) or 4 (5 μM) for a given period of incubation, immediately after which the emission intensity of Rhod-2 and Rhod-4 was measured by flow cytometry. […]
In a 1.5 mL Eppendorf tube, Jurkat cells (2.0 × 10^5 cells) were incubated in the presence of Rhod-2/AM (5 μM, 100 μL) or Rhod-4/AM (5 μM, 100 μL) in 10% FBS/RPMI 1640 medium for 30 min at 37 °C under 5% CO2 and then treated with 4 (5 μM, 0–30 min) or CGP37157 (100 μM, 0–6 h) in 10% FBS/RPMI 1640 medium (100 μL) for 30 min at 37 °C under 5% CO2. Immediately after the treatment, 10% FBS/RPMI 1640 medium (300 μL) was added to the cells and the samples were analyzed on a flow cytometer (FACSCalibur cytometer, Becton). The data were analyzed on FlowJo software (FlowJo, LCC).

Jurkat cells [2] = test system: Jurkat cells
Protocol: The cytotoxicity of 4 against Jurkat cells was evaluated by conducting MTT assays [MTT = 3-(4,5-dimethyl-2-thiazolyl)-2,5-diphenyl-2H-tetrazolium bromide] as a function of time and by microscopic observations to determine the appropriate conditions for mechanistic studies of paraptosis (Figure 1).
It was reported that an inhibitor of a mitochondrial Na^+/Ca^2+ exchanger (mNCX), which functions to export Ca^2+ from the mitochondrial matrix to the cytosol in exchange with cytosolic Na^+, affects the mitochondrial Ca^2+ concentration.[60]−[63],[88]−[90] We therefore examined the cytotoxicity of CGP37157 (Chart 2), a typical inhibitor of mNCX,[60],[61],[88]−[90] against Jurkat cells by means of an MTT assay. […] For microscopic observations, Jurkat cells were treated with CGP37157 (100 μM) for 0–24 h, and cell death was observed after treatment with CGP37157 for 12–24 h, by staining with propidium iodide (PI) (Figure 3B).
HeLa S3 and A549 cells (2.0 × 10^4 cells/well) were seeded on a 96-well plate (BD Falcon) in cell culture medium and incubated overnight at 37 °C under 5% CO2. Jurkat (2.0 × 10^4 cells/well), HeLa S3, and A549 cells were treated with 4 (0–25 μM) and CGP37157 (0–100 μM) for 1, 3, 6, 12, and 24 h at 37 °C under 5% CO2, after which a MTT solution in PBS (0.5%, 10 μL) was added to each well.
Statistical analyses of MTT assays were performed by using Graphpad Prism 9 software with the Student’s t test. Data are presented as means ± the standard deviation of three independent experiments, and a P of <0.05 was considered to indicate a statistically significant difference.

Jurkat cells [3] = experiment: Mitochondrial membrane potential (ΔΨm) by DilC1(5) confocal microscopy
Protocol: The mitochondrial membrane potential (ΔΨm) was measured by means of DilC1(5) (1,1′,3,3,3′,3′-hexamethylindodicarbocyanine iodide), the emission intensity of which responds to ΔΨm.[95] Jurkat cells were treated with CGP37157 (100 μM) for 1–12 h, stained with DilC1(5) (5 μM) for 30 min, and observed via confocal microscopy. […] The decrease in ΔΨm with 4 was also observed by confocal microscopy (Figure 6B).
In a 1.5 mL Eppendorf tube, Jurkat cells (2.0 × 10^5 cells) were stained with DilC1(5) (500 nM, 100 μL) in 10% FBS/RPMI 1640 medium for 30 min at 37 °C under 5% CO2, followed by the treatment with 4 (5 μM, 100 μL) in the medium for 0–60 min at 37 °C under 5% CO2. For CGP37157, Jurkat cells (2.0 × 10^5 cells) were treated with CGP37157 (100 μM, 100 μL) in 10% FBS/RPMI 1640 medium for 0–12 h at 37 °C under 5% CO2, followed by the treatment with DilC1(5) (500 nM, 100 μL) in PBS. The cells were washed with PBS and observed by confocal microscopy (Fluoview, FV-1000, Olympus) using a Greiner CELLview dish (35 mm × 10 mm). Excitation at 405 nm and emission from 470 to 520 nm were used for 4. Excitation at 635 nm and emission from 650 to 750 nm were used for DilC1(5). The exposure time was 20 μs/pixel.

SMILES | Emission intensity of Rhod-2 (mitochondrial Ca2+) (Jurkat cells [1]; 4 at 5 μM, 10–30 min after treatment) | EC50 (Jurkat cells [2]; 1 h) | EC50 (Jurkat cells [2]; 3 h) | EC50 (Jurkat cells [2]; 6 h) | EC50 (Jurkat cells [2]; 12 h) | EC50 (Jurkat cells [2]; 24 h) | Emission of DilC1(5) (ΔΨm) (Jurkat cells [3]; 4 at 5 μM, 20 min after treatment) | Emission intensity of Rhod-2 (mitochondrial Ca2+) (Jurkat cells [1]; CGP37157 100 μM, 6 h after treatment) | EC50 (Jurkat cells [2]; 12 h incubation, 10% FBS/RPMI 1640, 37 °C, 5% CO2, read-out: EC50 (MTT, Jurkat cells)) | EC50 (Jurkat cells [2]; 24 h incubation, 10% FBS/RPMI 1640, 37 °C, 5% CO2, read-out: EC50 (MTT, Jurkat cells)) | Emission of DilC1(5) (ΔΨm) (Jurkat cells [3]; CGP37157 100 μM, 6 h)
NCCCC[C@H](NC(=O)[C@H](CCCCN)NC(=O)[C@@H](N)CCCCN)C(=O)NCC(=O)NCC(=O)NCCCCCCCCNC(=O)COc1ccc(-c2ccccn2)cc1 [compound 4] (H-KKKGG-X1) | enhanced | 3200 nM | 2000 nM | 1500 nM | 1200 nM | 1700 nM | decrease in emission intensity |  |  |  | 
O=C1CSC(c2ccccc2Cl)c2cc(Cl)ccc2N1 (centres unmarked) [CGP37157] |  |  |  |  |  |  |  | enhanced | 74000 nM | 55000 nM | quenched
